# Laboratory results taken from ChEMBL document CHEMBL1201862, “PubChem BioAssay data set” (2004).
#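 96-well plates; 48 h exposure; 5 concentrations. Endpoints by linear interpolation between flanking doses. Not reached: highest tested concentration assigned. At the GI50, growth is halved.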 The source made the active and inactive calls. Rule as the data show it: active = GI50 up to about 1.1 µM and inactive = higher.
# Legend:
# Test in all cases: inhibition of tumour cell growth, NCI panel, 48 h
# HCC 2998 = tested on: HCC 2998
# DMS-273 = tested on: DMS-273
# HCT-15 = tested on: HCT-15
# OVCAR-3 = tested on: OVCAR-3
# CAKI-1 = tested on: CAKI-1
# NCI-H522 = tested on: NCI-H522
# NCI-H460 = tested on: NCI-H460
# UACC-257 = tested on: UACC-257
# M19-MEL = tested on: M19-MEL
# HT-29 = tested on: HT-29
# LOX IMVI = tested on: LOX IMVI
# OVCAR-5 = tested on: OVCAR-5
# HOP-92 = tested on: HOP-92
# SR = tested on: SR
# SK-MEL-2 = tested on: SK-MEL-2
# COLO 205 = tested on: COLO 205
# CCRF-CEM = tested on: CCRF-CEM
# A549 = tested on: A549
# MOLT-4 = tested on: MOLT-4
# NCI-H23 = tested on: NCI-H23
# HOP-62 = tested on: HOP-62
# LXFL 529 = tested on: LXFL 529
# IGROV-1 = tested on: IGROV-1
# OVCAR-8 = tested on: OVCAR-8
# SF-295 = tested on: SF-295
# RXF 393 = tested on: RXF 393
# KM12 = tested on: KM12
# SNB-78 = tested on: SNB-78
# NCI-H226 = tested on: NCI-H226
# U-251 = tested on: U-251
# HOP-18 = tested on: HOP-18
# TK-10 = tested on: TK-10
# RPMI-8226 = tested on: RPMI-8226
# OVCAR-4 = tested on: OVCAR-4
# SNB-75 = tested on: SNB-75
# ACHN = tested on: ACHN
# KM-20L2 = tested on: KM-20L2
# SK-MEL-5 = tested on: SK-MEL-5
# HCT-116 = tested on: HCT-116
# SK-MEL-28 = tested on: SK-MEL-28
# Malme-3M = tested on: Malme-3M
# 786-0 = tested on: 786-0
# DLD-1 = tested on: DLD-1
# SK-OV-3 = tested on: SK-OV-3
# K562 = tested on: K562
# HL-60 = tested on: HL-60
# DMS-114 = tested on: DMS-114
# SW-620 = tested on: SW-620
# EKVX = tested on: EKVX
# SNB-19 = tested on: SNB-19
# M14 = tested on: M14
# SF-268 = tested on: SF-268
# UACC-62 = tested on: UACC-62
# UO-31 = tested on: UO-31
# SF-539 = tested on: SF-539
# A498 = tested on: A498
# XF498 = tested on: XF498
# SN12C = tested on: SN12C
smiles,measurement,setting,value
O=C(c1ccccc1)C1N=NN(Cc2ccccc2[N+](=O)[O-])C1C(=O)c1ccccc1 (stereo not given),GI50,HCC 2998,96.8 µM (inactive)
same,GI50,DMS-273,> 100 µM (inactive)
same,GI50,HCT-15,> 100 µM
same,GI50,OVCAR-3,> 100 µM (inactive)
same,GI50,CAKI-1,> 100 µM (inactive)
same,GI50,NCI-H522,> 100 µM (inactive)
same,GI50,NCI-H460,> 100 µM (inactive)
same,GI50,UACC-257,> 100 µM (inactive)
same,GI50,M19-MEL,> 100 µM (inactive)
same,GI50,HT-29,> 100 µM (inactive)
same,GI50,LOX IMVI,> 100 µM (inactive)
same,GI50,OVCAR-5,> 100 µM (inactive)
same,GI50,HOP-92,> 100 µM (inactive)
same,GI50,SR,> 100 µM (inactive)
same,GI50,SK-MEL-2,> 100 µM (inactive)
same,GI50,COLO 205,34.5 µM (inactive)
same,GI50,CCRF-CEM,> 100 µM (inactive)
same,GI50,A549,37.8 µM (inactive)
same,GI50,MOLT-4,> 100 µM (inactive)
same,GI50,NCI-H23,> 100 µM (inactive)
same,GI50,HOP-62,> 100 µM (inactive)
same,GI50,LXFL 529,> 100 µM (inactive)
same,GI50,IGROV-1,> 100 µM (inactive)
same,GI50,OVCAR-8,> 100 µM (inactive)
same,GI50,SF-295,> 100 µM (inactive)
same,GI50,RXF 393,> 100 µM (inactive)
same,GI50,KM12,> 100 µM (inactive)
same,GI50,SNB-78,> 100 µM (inactive)
same,GI50,NCI-H226,> 100 µM (inactive)
same,GI50,U-251,> 100 µM (inactive)
same,GI50,HOP-18,> 100 µM (inactive)
same,GI50,TK-10,> 100 µM (inactive)
same,GI50,RPMI-8226,> 100 µM (inactive)
same,GI50,OVCAR-4,> 100 µM (inactive)
same,GI50,SNB-75,41.5 µM (inactive)
same,GI50,ACHN,> 100 µM (inactive)
same,GI50,KM-20L2,> 100 µM (inactive)
same,GI50,SK-MEL-5,> 100 µM (inactive)
same,GI50,HCT-116,> 100 µM (inactive)
same,GI50,SK-MEL-28,> 100 µM (inactive)
same,GI50,Malme-3M,> 100 µM (inactive)
same,GI50,786-0,> 100 µM (inactive)
same,GI50,DLD-1,> 100 µM (inactive)
same,GI50,SK-OV-3,87.3 µM (inactive)
same,GI50,K562,> 100 µM (inactive)
same,GI50,HL-60,> 100 µM (inactive)
same,GI50,DMS-114,> 100 µM (inactive)
same,GI50,SW-620,> 100 µM (inactive)
same,GI50,EKVX,> 100 µM (inactive)
same,GI50,SNB-19,> 100 µM (inactive)
same,GI50,M14,> 100 µM (inactive)
same,GI50,SF-268,> 100 µM (inactive)
same,GI50,UACC-62,> 100 µM (inactive)
same,GI50,UO-31,> 100 µM (inactive)
Cn1cc(C2(C)CC(C)(C)c3c2n(C)c2ccccc32)c2ccccc21 (stereo not given),GI50,HCC 2998,52.4 µM (inactive)
same,GI50,DMS-273,> 100 µM (inactive)
same,GI50,HCT-15,> 100 µM
same,GI50,OVCAR-3,64 µM (inactive)
same,GI50,CAKI-1,> 100 µM (inactive)
same,GI50,NCI-H522,40.3 µM (inactive)
same,GI50,NCI-H460,> 100 µM (inactive)
same,GI50,UACC-257,> 100 µM (inactive)
same,GI50,M19-MEL,> 100 µM (inactive)
same,GI50,HT-29,49.8 µM (inactive)
same,GI50,SF-539,> 100 µM (inactive)
same,GI50,LOX IMVI,> 100 µM (inactive)
same,GI50,HOP-92,> 100 µM (inactive)
same,GI50,SK-MEL-2,> 100 µM (inactive)
same,GI50,A498,> 100 µM (inactive)
same,GI50,COLO 205,> 100 µM (inactive)
same,GI50,CCRF-CEM,92.7 µM (inactive)
same,GI50,A549,> 100 µM (inactive)
same,GI50,MOLT-4,42.4 µM (inactive)
same,GI50,NCI-H23,95.3 µM (inactive)
same,GI50,HOP-62,> 100 µM (inactive)
same,GI50,LXFL 529,> 100 µM (inactive)
same,GI50,IGROV-1,> 100 µM (inactive)
same,GI50,XF498,81.1 µM (inactive)
same,GI50,OVCAR-8,> 100 µM (inactive)
same,GI50,SF-295,> 100 µM (inactive)
same,GI50,RXF 393,32.5 µM (inactive)
same,GI50,KM12,94 µM (inactive)
same,GI50,SNB-78,> 100 µM (inactive)
same,GI50,NCI-H226,90.2 µM (inactive)
same,GI50,U-251,> 100 µM (inactive)
same,GI50,TK-10,> 100 µM (inactive)
same,GI50,RPMI-8226,40.2 µM (inactive)
same,GI50,SNB-75,> 100 µM (inactive)
same,GI50,KM-20L2,> 100 µM (inactive)
same,GI50,SK-MEL-5,69.3 µM (inactive)
same,GI50,SK-MEL-28,> 100 µM (inactive)
same,GI50,Malme-3M,> 100 µM (inactive)
same,GI50,786-0,> 100 µM (inactive)
same,GI50,DLD-1,> 100 µM (inactive)
same,GI50,SK-OV-3,> 100 µM (inactive)
same,GI50,K562,83.8 µM (inactive)
same,GI50,DMS-114,59.6 µM (inactive)
same,GI50,SN12C,> 100 µM (inactive)
same,GI50,SW-620,> 100 µM (inactive)
same,GI50,EKVX,> 100 µM (inactive)
same,GI50,SNB-19,> 100 µM (inactive)
same,GI50,M14,> 100 µM (inactive)
same,GI50,SF-268,> 100 µM (inactive)
same,GI50,UACC-62,> 100 µM (inactive)
same,GI50,UO-31,92.7 µM (inactive)
